Data on one compound can be found in article PMC3262104 (Journal of the American Chemical Society, 2011).

Each structure is given as a SMILES string. Bounds are passed on as bounds.

Data set [1] has as its target T1, P-gp (Homo sapiens, UniProt P08183). In words: Inhibition of P-gp-mediated efflux of calcein-AM in 12D7-MDR cells. It is filed as cell-based.
The next data set concerns HIV-1LAI. In words: Inhibition of HIV-1 replication, HIV p24 ELISA in infected 12D7 cells. It is filed as cell-based. To be noted: Human immunodeficiency virus 1, read-out: IC50 inhibition of HIV-1 replication.
In data set [2] the test system is P-gp. To be noted: brain; cited from earlier work.
The target in data set [3] is T1, P-gp. In words: [125I]IAAP photo-crosslinking competition, crude Sf9 membranes expressing P-gp. It counts as binding.

Broadly, the IC50 is the midpoint of a concentration-inhibition curve.

T1 sequence (P08183 whole entry): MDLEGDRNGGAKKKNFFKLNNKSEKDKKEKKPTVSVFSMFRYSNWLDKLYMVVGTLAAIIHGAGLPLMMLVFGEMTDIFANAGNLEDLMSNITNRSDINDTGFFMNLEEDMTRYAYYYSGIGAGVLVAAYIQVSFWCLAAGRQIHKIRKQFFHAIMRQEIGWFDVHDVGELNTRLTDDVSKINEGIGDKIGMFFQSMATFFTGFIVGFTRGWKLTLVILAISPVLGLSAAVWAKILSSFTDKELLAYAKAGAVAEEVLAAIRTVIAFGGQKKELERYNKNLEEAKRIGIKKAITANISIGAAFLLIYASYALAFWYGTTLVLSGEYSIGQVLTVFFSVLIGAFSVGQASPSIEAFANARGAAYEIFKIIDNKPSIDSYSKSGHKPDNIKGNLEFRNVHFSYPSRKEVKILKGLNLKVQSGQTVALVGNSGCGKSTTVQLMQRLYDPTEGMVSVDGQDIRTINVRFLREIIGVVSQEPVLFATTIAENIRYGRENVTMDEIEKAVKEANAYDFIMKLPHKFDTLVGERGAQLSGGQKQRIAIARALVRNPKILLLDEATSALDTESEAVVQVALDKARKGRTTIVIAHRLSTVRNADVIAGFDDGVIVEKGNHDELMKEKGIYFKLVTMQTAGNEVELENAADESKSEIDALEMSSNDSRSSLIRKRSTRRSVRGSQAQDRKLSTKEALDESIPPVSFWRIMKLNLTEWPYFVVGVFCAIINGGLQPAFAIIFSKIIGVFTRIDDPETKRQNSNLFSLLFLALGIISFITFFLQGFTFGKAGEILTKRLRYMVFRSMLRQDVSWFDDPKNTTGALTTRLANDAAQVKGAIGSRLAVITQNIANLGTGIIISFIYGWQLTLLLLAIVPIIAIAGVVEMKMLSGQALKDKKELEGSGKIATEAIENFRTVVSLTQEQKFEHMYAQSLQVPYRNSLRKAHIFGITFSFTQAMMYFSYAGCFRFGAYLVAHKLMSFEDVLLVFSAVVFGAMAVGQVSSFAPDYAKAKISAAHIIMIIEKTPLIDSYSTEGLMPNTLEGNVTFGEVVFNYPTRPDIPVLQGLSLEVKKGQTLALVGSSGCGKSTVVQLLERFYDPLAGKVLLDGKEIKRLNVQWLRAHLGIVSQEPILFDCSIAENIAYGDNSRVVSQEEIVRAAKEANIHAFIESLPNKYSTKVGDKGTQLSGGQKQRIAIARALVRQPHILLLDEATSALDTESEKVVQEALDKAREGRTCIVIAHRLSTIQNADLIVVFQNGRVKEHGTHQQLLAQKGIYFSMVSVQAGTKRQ

In the case of `Nc1nc(NC2CC2)c2ncn([C@H]3C=C[C@@H](CO)C3)c2n1` [abacavir], the IC50 is greater than 500 µM at P-gp [1], roughly 0.6 µM in the data set on HIV-1LAI and greater than 100 µM at P-gp [3]. The “Inhibition of P-gp mediated efflux of fluorescent substrates” value at P-gp [1] (12D7-MDR cells, at a concentration of 500 µM) is “only minimally effective”. In the data set with P-gp [2], the “Increased levels in the brains of dosed P-gp-null mice versus dosed wild-type mice” value is reported as 20 fold.
